A short description of experiment [1]: Fold resistance (L100I/ WT) (as per ref 10 in the article).
Experiment [2] deals with Human immunodeficiency virus type 1 reverse transcriptase (Human immunodeficiency virus 1, UniProt Q72547, L100I). Nature of the experiment: Effective concentration required against L100I mutant HIV-1 reverse transcriptase.
Experiment [3] in a line: Fold resistance (L100I/ WT) was determined.
Experiment [4] has as its target Human immunodeficiency virus type 1 reverse transcriptase (Human immunodeficiency virus 1, UniProt Q72547). Nature of the experiment: Effective concentration required against wild type HIV-1 reverse transcriptase.
Experiment [5] can be described thus: Fold resistance (L100I/ WT) (as per ref 7 in the article).
Experiment [6] in a line: Fold resistance (L100I/ WT) (as per ref 8 in the article).
A short description of experiment [7]: Fold resistance (L100I/ WT) (as per ref 12 in the article).
Experiment [8] is described as follows: Fold resistance (L100I/ WT) (as per ref 6 in the article).

pEC50: −log10 of the molar value. Several values for one entry are separate records, joined by “and”; a condition that tells them apart may be missing. Identical values can stand only once.

With `O=C1Nc2ccc(Cl)cc2[C@@](C#CC2CC2)(C(F)(F)F)O1`, the FR in experiment [1] was 5.9 and 8.6.
In general, pEC50 refers to the EC50 on a negative log10 scale, so that one unit is a factor of ten. Read a high pEC50 as a small EC50. On to `CC(C)=CCN1Cc2cc(Cl)cc3[nH]c(=S)n(c23)C[C@@H]1C`, for which the pEC50 in experiment [2] is 5.25; in experiment [4], 7.22. This molecule also registered an FR in experiment [3] of 93.3.
As to `CC(C)=CCOc1cc(NC(=S)c2ccoc2C)ccc1Cl` [UC 781], the pEC50 in experiment [2] was 7.62; in experiment [4], 8.05. This molecule showed an FR in experiment [3] of 2.7.
Take `CCOCn1c(Cc2ccccc2)c(C(C)C)c(=O)[nH]c1=O` [EMIVIRINE]: the values for the pEC50 in experiment [2] and in experiment [4] were 7.70 and 8.70, respectively. In experiment [3], this molecule registered an FR of 10.
As for `Cc1ccnc2c1NC(=O)c1cccnc1N2C1CC1`, the FR in experiment [5] stood at 2.1; in experiment [6], 12.7; in experiment [7], 5; in experiment [8] it was 0.6.

(Values after ChEMBL document CHEMBL1133823, “Antiviral drug design: computational analyses of the effects of the L100I mutation for HIV-RT on the binding of NNRTIs” (Bioorg Med Chem Lett, 2001).)
